Tested on: HCV 1b genotype replicon
Assay: HCV genotype-1b replicon assay (qRT-PCR or luciferase)
Format: cell-based
Conditions: Hepatitis C virus, read-out: Genotype-1b replicon EC50 Range
Description: HCV replicon cell lines (kindly provided by R. Bartenschlager) isolated from colonies as described by Lohman et. al. (Lohman et al. (1999) Science 285: 110-113, expressly incorporated by reference in its entirety) and used for all experiments. The HCV replicon has the nucleic acid sequence set forth in EMBL Accession No.: AJ242651, the coding sequence of which is from nucleotides 1801 to 8406.
The coding sequence of the published HCV replicon was synthesized and subsequently assembled in a modified plasmid pBR322 (Promega, Madison, Wis.) using standard molecular biology techniques. […]
EC50 values of single agent compounds and combinations were determined by HCV RNA detection using quantitative RT-PCR, according to the manufacturer's instructions, with a TAQMAN® One-Step RT-PCR Master Mix Reagents Kit (Cat # AB 4309169, Applied Biosystems) on an ABI Model 7500 thermocycler. The TaqMan primers used for detecting and quantifying HCV RNA were obtained from Integrated DNA Technologies. HCV RNA was normalized to GAPDH RNA levels in drug-treated cells, which was detected and quantified using the Human GAPDH Endogenous Control Mix (Applied Biosystems, AB 4310884E). […] Chemical agent cytotoxicity was evaluated using an MTS assay according to the manufacturer's directions (Promega). […]

## COC(=O)N[C@H](C(=O)N1CCC(C(=O)Nc2ccc(-c3ccc(NC(=O)C4CCN(C(=O)[C@@H](NC(=O)OC)C(C)C)C4)cc3)cc2)C1)C(C)C (stereo partly shown) [Example 295]
  EC50: > 0.01 µM

From patent publication US8703938B2, “Hepatitis C virus inhibitors” (Enanta Pharmaceuticals, Inc., priority 2009, dated 2014)
